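Compound exposure: 48 hours, 5 concentrations, 96-well plates. At the GI50, growth is halved. TGI marks complete inhibition of growth.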
Key:
Assay in all cases: inhibition of tumour cell growth, NCI panel, 48 h
NCI-H460 lung = test system: NCI-H460 lung
SR leukemia = test system: SR leukemia
SNB-75 CNS = test system: SNB-75 CNS
BT-549 breast = test system: BT-549 breast
HT29 colon = test system: HT29 colon
MCF7 breast = test system: MCF7 breast
HL-60(TB) leukemia = test system: HL-60(TB) leukemia
OVCAR-8 ovarian = test system: OVCAR-8 ovarian
SNB-19 CNS = test system: SNB-19 CNS
SK-MEL-2 melanoma = test system: SK-MEL-2 melanoma

Compound | TGI (NCI-H460 lung) | TGI (SR leukemia) | TGI (SNB-75 CNS) | TGI (BT-549 breast) | TGI (HT29 colon) | TGI (MCF7 breast) | TGI (HL-60(TB) leukemia) | TGI (OVCAR-8 ovarian) | TGI (SNB-19 CNS) | TGI (SK-MEL-2 melanoma) | GI50 (NCI-H460 lung) | GI50 (SR leukemia) | GI50 (SNB-75 CNS) | GI50 (BT-549 breast) | GI50 (HT29 colon) | GI50 (MCF7 breast) | GI50 (HL-60(TB) leukemia) | GI50 (OVCAR-8 ovarian) | GI50 (SNB-19 CNS) | GI50 (SK-MEL-2 melanoma)
Oc1ccc2ccccc2c1N=Nc1ccccc1 | > 100 µM | > 100 µM | > 100 µM | > 100 µM | > 100 µM | > 100 µM | > 100 µM | > 100 µM | > 100 µM | > 100 µM |  |  |  |  |  |  |  |  |  | 
CCS/C(Nc1ccccc1)=C(\C#N)C(=O)Nc1ccc(OC)cc1 | 34.2 µM | > 100 µM | 7.21 µM | > 100 µM | 33.3 µM | > 100 µM | > 100 µM | > 100 µM | > 100 µM | > 100 µM | 3.14 µM | 1.54 µM | 2.13 µM | 2.8 µM | 3.47 µM | 2.71 µM | 2.87 µM | 4.37 µM | 3.55 µM | 3.01 µM
Oc1c(CN2CCCC2)cc(COCc2ccccc2)c2cccnc12 | 11.8 µM | 16.9 µM | 28.6 µM | 18.1 µM | 26.5 µM | 13.3 µM | 8.95 µM | 12 µM | 92.4 µM | 20.1 µM | 0.774 µM | 1.83 µM | 2.79 µM | 3.52 µM | 10.4 µM | 2.82 µM | 2.52 µM | 2.53 µM | 3.53 µM | 4.68 µM
O=C(NNS(=O)(=O)c1cc(C(F)(F)F)cc(C(F)(F)F)c1)c1cnn(-c2ccc(Cl)cc2)c1C(F)(F)F | 37.2 µM | 42 µM | 75.3 µM | 28 µM | > 100 µM | 58.9 µM | 45.6 µM | 51.7 µM | 49.7 µM | 34.7 µM | 17.2 µM | 19.4 µM | 24.4 µM | 14.5 µM | 31.7 µM | 21.5 µM | 20.7 µM | 16.1 µM | 20.2 µM | 18.5 µM
C[C@@H]1CC[C@@]2(OC1)O[C@H]1C[C@H]3[C@@H]4CC=C5C[C@@H](O[C@@H]6O[C@H](CO)[C@@H](O[C@@H]7O[C@@H](CO)[C@H](O)[C@H]7O)[C@H](O)[C@H]6O[C@@H]6O[C@@H](C)[C@H](O)[C@@H](O)[C@H]6O)CC[C@]5(C)[C@H]4CC[C@]3(C)[C@H]1[C@@H]2C | 2.29 µM | 2.39 µM | 2.46 µM | 2.94 µM | 2.46 µM | 3.3 µM | 2.81 µM | 1.96 µM | 2.45 µM | 3.04 µM | 0.928 µM | 0.565 µM | 1.18 µM | 1.5 µM | 1.06 µM | 1.8 µM | 1.44 µM | 0.657 µM | 1.21 µM | 1.67 µM
C#Cc1ccc(NC(=O)c2ccc(/C=C/C(=O)c3nccn3C)cc2)cc1 | 1.64 µM | 3.33 µM | 0.809 µM | 0.845 µM | 1.32 µM | 1.09 µM | 1.37 µM | 8.79 µM | 1.35 µM | 6.68 µM | 0.586 µM | 0.115 µM | 0.344 µM | 0.358 µM | 0.54 µM | 0.3 µM | 0.507 µM | 0.717 µM | 0.512 µM | 1.63 µM
